Results: paper PMC10244169, “Psychedelics promote plasticity by directly binding to BDNF receptor TrkB” (Nature Neuroscience, 2023)

Tests used:
TrkB V437A = target: T1, TrkB V437A (Rattus norvegicus, UniProt Q63604, V437A); assay: ^3H-LSD saturation binding, TrkB mutant
T1 construct: expressed in transfected cells; host or cells: HEK293T
Experimental: (§1) Binding assays were performed as previously described with minor modifications. […] Samples from mouse embryo (E18) brains were also lysed, vortexed, sonicated and centrifuged for binding assays. Plates were then washed with PBS. […] For the competition binding assays with biotinylated R,R-HNK, the amino-biotinylation of R,R-HNK was performed using a commercial kit (Thermo Scientific, EZ-Link NHS-PEG4 Biotinylation Kit, 21455) and the reaction monitored by MS. A mixture of biotinylated R,R-HNK (10 µM) and unlabeled compounds (1 pM to 10 µM) in PBS was added to the 96-well plates containing the immunoprecipitated TrkB and incubated for 1 h at room temperature. […] Luminescence was determined via streptavidin conjugated with horseradish peroxidase (HRP; Thermo Fisher Scientific, 21126; 1:5,000, 1 h at room temperature) in reaction with the Pierce ECL substrate (Thermo Fisher Scientific, 32106). Luminescence from blank wells that contained all reagents but the sample lysates was used to determine nonspecific binding. To obtain the binding curves, results from binding assays were fitted to the equation of specific binding with Hill slope from GraphPad Prism 9.2. To calculate koff values, results were fitted to the equation of dissociation of one phase exponential decay from GraphPad Prism 9.2.

TrkB Y433F = target: T2, TrkB Y433F (Rattus norvegicus, UniProt Q63604, Y433F); assay: ^3H-LSD saturation binding, TrkB mutant
T2 construct: expressed in transfected cells; host or cells: HEK293T
Experimental: as §1

TrkB S440A = target: T3, TrkB S440A (Rattus norvegicus, UniProt Q63604, S440A); assay: ^3H-LSD saturation binding, TrkB mutant
T3 construct: expressed in transfected cells; host or cells: HEK293T

TrkB = assay: Total TrkB expression in PFC and hippocampus after single LSD injection; type: in vivo, mouse; conditions: PFC or hippocampus, WT or Y433F^+/− mice
Experimental: The phosphorylation of TrkB (pY816) and interaction with PLCγ1 were assessed by enzyme-linked immunosorbent assay (ELISA) as previously described[11],[80],[81] with minor modifications. Briefly, white 96-well plates (PerkinElmer, OptiPlate 96F-HB) were precoated with goat anti-TrkB (R&D systems, AF1494; 1:500, overnight, 4 °C) antibody in carbonate buffer (pH 9.8) and blocked with 3% BSA in PBS with 0.1% Tween-20 (PBS-T) for 2 h at room temperature. […] Samples were incubated overnight at 4 °C, and 24 h later plates were washed with PBS-T and incubated with either rabbit anti-phospho-TrkB(Tyr816) (Cell Signaling Technology, 4168S; 1:2,000), rabbit anti-PLCγ1 (Cell Signaling Technologies, 5690S; 1:2,000) or rabbit anti-Trk (Cell Signaling Technologies, 92991; 1:2,000) antibodies overnight at 4 °C. After washing with PBS-T, plates were incubated with HRP-conjugated goat anti-rabbit (Bio-Rad, 170–5046; 1:5,000, 1 h, room temperature) antibody, followed by more washing with PBS-T. Finally, the chemiluminescent signal was read after brief incubation with Pierce ECL substrate (Thermo Fisher Scientific, 32106). Luminescence from blank wells that contained all reagents but the sample lysates was used to determine background signal.

[1] = system: TrkB cell surface retention; assay: Cell surface retention of TrkB in cortical neurons; type: cell-based, rat
Experimental: The cell surface retention of TrkB was measured as previously described[11],[82]. […] For antagonist experiments, cultures were pretreated with M100907 (100 nM) for 10 min and remained present for the rest of the experiment. After washing with PBS and incubating for 1 h with blocking buffer (5% nonfat dry milk and 5% BSA) at room temperature, plates were incubated with goat anti-TrkB antibody (R&D Systems, AF1494; 1:1,000, overnight, 4 °C). After further PBS washes, plates were incubated with HRP-conjugated […] antibody (Bio-Rad, 170–5046; 1:5,000, 1 h, room temperature). Finally, wells were washed with PBS and the chemiluminescent signal was read after brief incubation with Pierce ECL substrate (Thermo Fisher Scientific, 32106).

BDNF protein = BDNF protein ELISA in cortical neurons; type: cell-based, rat; conditions: for BDNF protein, group mean (5g): LSD 100 nM, vehicle 100
Experimental: To determine BDNF protein concentrations, ELISA was run as previously described[83] with minor modifications. […] Samples were diluted in Hanks buffer (125 mM NaCl, 5 mM KCl, 1.2 mM NaH2PO4, 1 mM CaCl2, 1.2 mM MgCl2, 1 μM ZnCl2, 10 mM glucose, 25 mM HEPES and 0.25% BSA, pH 7.4). Samples and BDNF standards (10–1,000 pg ml^−1, Peprotech) were acidified at room temperature to pH 3 by adding 1 M HCl and neutralized to pH 7 after 15 min with 1 M NaOH. A Maxisorb Nunc ELISA plate (Thermo Scientific) previously coated with a primary BDNF antibody (1:1,000 in carbonate buffer, overnight, 4 °C) and blocked (2% BSA and 0.1% Triton X-100 in Hanks buffer, 2 h, room temperature). Then, 170 µl of samples and standards were added to the plate with 30 µl of the secondary POD-conjugated BDNF antibody (1:1,000 in 6.66% BSA and 0.66% Triton X-100 in Hanks buffer). The BDNF antibodies were received from Roche and have been previously described. After incubating overnight at 4 °C the plate was washed with PBS-T. BM Blue POD substrate (Roche, 54827-17-1) was added to each well, and the colorimetric reaction was stopped after 20 min by adding 50 µl of 1 M H2SO4. Absorbance was measured at […] with a plate reader (Varioskan Flash, Thermo Scientific).

primary visual cortex = assay: Ocular dominance plasticity after monocular deprivation; type: in vivo, mouse; conditions: ext fig 7b
Experimental: Female and male mice were 17 weeks old at the time of monocular deprivation, since the physiological critical period in the binocular region of the visual cortex is closed by then[85]. […] Briefly, mice were injected with an anesthetic mixture containing 0.05 mg kg^−1 fentanyl (Hameln), 5 mg kg^−1 midazolam (Hameln) and 0.5 mg kg^−1 medetomidine (Orion Pharma) diluted in saline. Eyes were protected from drying with eye-protective gel (Alcon), and the head was shaved and fixed in a stereotaxic frame with a heating pad maintained at 37 °C. A mixture of lidocaine and adrenaline (Orion Pharma) was applied locally on the head, and the scalp above the visual cortex was cut. The periosteum was removed gently, and the skull was rapidly cleaned from fat with acetone. The surface of the skull was covered with a thin layer of cyanoacrylate glue (Henkel, Loctite 401), followed by two layers of acryl, obtained by mixing colorless acrylic powder (EUBECOS) with liquid methacrylate (Densply). […] The signal was recorded from one eye at a time, with the other eye covered by a patch. […] The OD score as (C − I)/(C + I) was calculated, and the ocular dominance index (ODI) was determined as the mean of the OD score for all responsive pixels, as described by Cang et al.[89].

Bdnf mRNA = assay: RT–qPCR of Bdnf mRNA in cortical neurons; conditions: for Bdnf mRNA, group mean (5f): LSD 100 nM
Ntrk2 mRNA = assay: RT–qPCR of Ntrk2 mRNA in cortical neurons; conditions: after LSD treatment

T1 sequence (Q63604 32-821 V437A): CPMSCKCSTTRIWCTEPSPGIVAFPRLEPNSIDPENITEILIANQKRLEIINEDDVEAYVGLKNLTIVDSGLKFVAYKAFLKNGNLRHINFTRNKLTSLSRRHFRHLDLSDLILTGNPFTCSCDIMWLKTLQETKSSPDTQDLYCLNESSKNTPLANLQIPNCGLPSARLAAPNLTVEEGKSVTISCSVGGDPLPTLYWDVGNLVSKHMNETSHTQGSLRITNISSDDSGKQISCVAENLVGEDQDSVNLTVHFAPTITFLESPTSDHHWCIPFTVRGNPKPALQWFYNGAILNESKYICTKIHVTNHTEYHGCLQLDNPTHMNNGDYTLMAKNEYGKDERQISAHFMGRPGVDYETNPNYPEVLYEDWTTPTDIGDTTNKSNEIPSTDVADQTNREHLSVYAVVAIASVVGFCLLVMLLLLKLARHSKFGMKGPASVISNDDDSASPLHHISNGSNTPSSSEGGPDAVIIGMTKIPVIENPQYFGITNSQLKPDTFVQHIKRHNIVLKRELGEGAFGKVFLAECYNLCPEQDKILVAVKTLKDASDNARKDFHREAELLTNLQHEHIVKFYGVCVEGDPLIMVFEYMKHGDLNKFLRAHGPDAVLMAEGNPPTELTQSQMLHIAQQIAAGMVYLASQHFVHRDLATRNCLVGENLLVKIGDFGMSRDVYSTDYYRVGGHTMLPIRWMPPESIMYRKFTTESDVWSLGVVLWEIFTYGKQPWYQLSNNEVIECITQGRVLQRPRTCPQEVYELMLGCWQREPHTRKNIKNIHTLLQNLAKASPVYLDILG
T2 sequence (Q63604 32-821 Y433F): as the sequence (Q63604 32-821 V437A) above, with Y402F, A406V counted along it
T3 sequence (Q63604 32-821 S440A): as the sequence (Q63604 32-821 V437A) above, with A406V, S409A counted along it

CCN(CC)C(=O)C1C=C2c3cccc4[nH]cc(c34)CC2N(C)C1 (stereo not shown) [LSD, lysergic acid diethylamide]
Bmax (best-fit, 1a) (TrkB V437A): 88.07
h (best-fit, 1a) (TrkB V437A): 1.581
Kd (TrkB V437A; Kd (best-fit, 1a), unit inferred): 25.9 nM
Kd (TrkB V437A; Kd, ^3H-LSD saturation): 25.9 ± 10.6 nM
Kd (TrkB Y433F; Kd (best-fit, 1a), Y433F, unit inferred): 24.6 nM
Kd (TrkB Y433F; Kd, ^3H-LSD saturation, Y433F): 24.6 ± 4.68 nM
Bmax (best-fit, 1a) (TrkB Y433F; Y433F): 91.95
h (best-fit, 1a) (TrkB Y433F; Y433F): 1.98
LSD binding (TrkB Y433F; Y433F point mutation): impairs LSD binding
Kd (TrkB S440A): 0.714 nM
Bmax (best-fit, 1a) (TrkB S440A; S440A): 114.7
h (best-fit, 1a) (TrkB S440A; S440A): 1.945
LSD binding (TrkB S440A; S440A mutation): did not influence LSD binding
total TrkB expression (TrkB): remain unaffected
TrkB cell surface retention [1]: increases TrkB cell surface retention independently of 5-HT2A activation
BDNF protein, group mean (5g) (BDNF protein; 5 min): 101.1
BDNF protein, group mean (5g) (BDNF protein; 1 h): 105.6
BDNF protein, group mean (5g) (BDNF protein; 24 h): 146.4
BDNF protein, group mean (5g) (BDNF protein; 72 h): 104.8
BDNF protein levels (BDNF protein; after LSD treatment): elevated at 24 h
Mean ± SEM of column B (IOS II) (primary visual cortex; IOS II (second imaging session), n=10 mice): 0.0300 ± 0.02329, n=10
Difference between means (IOS II vs. IOS I) (primary visual cortex; column B IOS II vs. column A IOS I, unpaired t test): -0.1640 ± 0.02794
Bdnf mRNA, group mean (5f) (Bdnf mRNA; 1 h, fold change, 1 h vehicle 1): 2.028
Bdnf mRNA, group mean (5f) (Bdnf mRNA; 24 h): 0.7739
Bdnf mRNA, group mean (5f) (Bdnf mRNA; 72 h): 0.7626
Bdnf mRNA (Bdnf mRNA; after LSD treatment): upregulated at 1 h
Bdnf mRNA, predicted (LS) mean over timepoints (5f) (Bdnf mRNA; vehicle 1.015): 1.188
Ntrk2 mRNA levels (Ntrk2 mRNA): without any changes in Ntrk2 mRNA levels
